Data on one molecule can be found in US20250177357A1, “METHODS FOR TREATING HYPERTROPHIC CARDIOMYOPATHY” (priority 2021, published 2025).

For the data set, the system named is healthy adults. The experiment in a line: Phase 1 pharmacodynamics by echocardiography (LVEF), SAD and MAD cohorts. Format: in vivo, human. As for the experimental part: Echocardiography. For PD assessments of LVEF, echocardiograms for the SAD and MAD cohorts were interpreted by the echocardiography core laboratory and used for all data analysis and dose level review decisions while immediate local interpretation of the echocardiograms was performed for safety monitoring. […] Echocardiograms on day 3 (48 h after dosing) were obtained only if the 24 h LVEF had not returned to near or above baseline, as determined by the investigator. In the MAD cohorts, echocardiograms were obtained on day −1, pre-dose on day 1, and at 1.5 h post dose on days 2, 4, and 9, and at 1.5, 24, and 72 h post dose on day 14 (for the 5-mg and 10-mg cohorts) or on day 17 (for the 7.5-mg cohort). Echocardiograms were obtained 3 days after the last dose (on day 17 or 20) only if the participant's prior LVEF was not near or above baseline, as determined by the investigator.
All participants who received ≥1 dose of study drug and had ≥1 pre-dose and ≥1 post-dose echocardiographic measurement were included in the PD analysis set. […] Descriptive statistics of the echocardiographic parameters were generated using SAS® Version 9.3 or higher.
Dose-response analysis was performed using analysis of covariance (ANCOVA) to identify the least-squares mean difference (aficamten minus placebo). To analyze the impact of drug dose on echocardiographic parameters in the SAD and MAD cohorts, an inferential analysis was conducted on the PD analysis set using linear mixed models for repeated-measures analysis of covariance (ANCOVA). The ANCOVA used baseline value as a covariate, included treatment, time-point, and time-point-by-treatment interaction as fixed effects, and change from baseline as the dependent variable. The unstructured variance-covariance structure was used, and the model accounted for the time-point repeated measures. The ANCOVA analysis was conducted separately for each study part and for each PD parameter. The least-squares means, the difference in least squares means (active minus placebo), and the associated 2-sided 95% CIs were presented for each comparison.
Analyses of concentration ‘bin’ and exposure-response were also performed using ANCOVA. SAS® PROC MIXED was used for all comparative analyses. […] A concentration bin ANCOVA was conducted using linear mixed models for repeated-measures analyses with concentration bin group as a fixed effect, baseline PD parameters as a covariate, change from baseline as the dependent variable, and a random intercept to adjust for the repeated measures. The unstructured variance-covariance structure was used. […] The ANCOVA compared the change in PD parameters between each bin versus the pooled placebo group. The least-squares means, the difference in least squares means (bin group minus placebo), and the associated 2-sided 95% CIs were presented for each comparison. The ANCOVA analysis was conducted separately for each study part. For all time-points at which both PK data and PD measures were available, the time-points were pooled for the analysis. […] From least to greatest, the data were then divided into 5 groups of observations (‘bins’), each consisting of 20% of the data points. Each bin was treated as a separate group.
The above analysis was then repeated using concentration as a continuous variable to estimate the exposure-response trend. Both a random intercept effect and a random concentration effect were added to the ANCOVA. The estimate of the concentration slope, with corresponding 2-sided 95% CIs, and the ANCOVA analyses were presented for each study part.
For all time-points at which both PK data and PD measures were available, the time points were pooled for the analysis. A nominal significance level of 5% was used for statistical comparisons, without adjustment for multiplicity.

Setting [1] is: SAD 50 mg (n = 11), […] post dose.

SMILES strings stand for the structures. Where “and” joins values, the source holds several entries; their conditions need not be identical. Equal entries are not always repeated.

As for `CCc1nc(-c2ccc3c(c2)CC[C@H]3NC(=O)c2cnn(C)c2)no1` [aficamten, (R)—N-(5-(5-ethyl-1,2,4-oxadiazol-3-yl)-2,3-dihydro-1H-inden-1-yl)-1-methyl-1H-pyrazole-4-carboxamide], the “Participants with absolute reductions in LVEF of ≥10% from baseline” value (10-mg MAD cohort) was found to be 33%. Moreover, the “Participants with absolute reduction in LVEF ≥5% from baseline” value is, setting by setting: (MAD 7.5 mg once daily, 1 of 6) 17%; (MAD 10 mg once daily, 2 of 6) 33%; (SAD 1-, 10-, or 25-mg cohorts) “no participants”; (SAD 3-mg cohort, 1 of 6) 17%; (SAD 40-mg cohort, 2 of 6) 33%; (SAD 50-mg cohort, 7 of 11) 64%. Where the note is “SAD 75-mg cohort, 1 of 1”, the “Participants with absolute reduction in LVEF ≥5% from baseline” value is 100%. Moreover, the “Number of participants with reduction in LVEF ≥10%” value (MAD 10-mg cohort) is 2. Also, for the setting “MAD cohorts”, the “Plasma aficamten concentrations with minimal suppression of LVEF in most participants” value is ≤ 180 ng/mL. Under setting [1], the “A, mean change from baseline” value stood at 2.5 cm/s. Also, under setting [1], the “E, mean change from baseline” value was -2.7 cm/s. Moreover, the “LV ET, mean change from baseline” value under setting [1] was found to be 1.9 ms. Besides, the “Participants with absolute reduction in LVEF ≥10%” value (SAD 40-mg cohort, 1 of 6) stood at 17% and the “Participants with absolute reduction in LVEF ≥10%” value (SAD 75-mg cohort, 1 participant) came out at 100%. Also, the “Participants with reduction in LVEF to <50%” value (SAD 50-mg cohort, 2 of 11) is given as 18% and the “Participants with reduction in LVEF to <50%” value (SAD 75-mg cohort, 1 of 1) is 100%. Further, the “LVEF of the individual participants with LVEF <50%” value (SAD 50-mg cohort, core laboratory assessment) was 48.2% and 45.5%. Moreover, the “Reduction in LVEF to <50%” value (any MAD cohort, core laboratory assessment) is given as “not observed”. In addition, the “Time within which decreases in LVEF to <50% were reversible” value (following single doses) is reported as ≤ 6 h. Moreover, the “Decrease in mean LVEF from baseline, least-squares mean difference vs placebo” value (single 50-mg dose, […] post dose, p=0.0001) is 5.5%. Under “single dose of 75 mg, approximately […] after dosing”, the “LVEF reached by 1 participant” value was found to be 34.1%.
